In patent US20260265177A1, “BICYCLIC COMPOUNDS AS INACTIVATORS OF OAT AND GABA-AT” (Northwestern University, priority 2023, published 2026):

Columns and labels:
Type in all cases: biochemical
hOAT [1] = target: T1, hOAT (Homo sapiens, UniProt P04181); test: Dialysis of hOAT inactivated by compound; details: hOAT dialyzed at 5° C. for 72 hours
T1 sequence (P04181 36-439 limits assumed): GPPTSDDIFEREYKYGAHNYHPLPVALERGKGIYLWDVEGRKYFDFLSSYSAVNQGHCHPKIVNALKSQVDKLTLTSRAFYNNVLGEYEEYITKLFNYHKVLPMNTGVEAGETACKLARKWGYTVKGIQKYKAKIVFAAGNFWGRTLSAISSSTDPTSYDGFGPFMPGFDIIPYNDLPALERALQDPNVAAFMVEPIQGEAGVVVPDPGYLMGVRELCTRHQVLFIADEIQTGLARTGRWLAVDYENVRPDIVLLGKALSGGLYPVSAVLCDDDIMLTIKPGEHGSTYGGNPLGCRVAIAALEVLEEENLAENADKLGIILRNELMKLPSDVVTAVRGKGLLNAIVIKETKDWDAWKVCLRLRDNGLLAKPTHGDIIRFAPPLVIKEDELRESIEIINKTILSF
Protocol: Samples of hOAT that had been inactivated by varying equivalents of 6 were dialyzed at 5° C. for 72 hours. At 4-, 12-, 24-, 48-, and 72-hour time points, aliquots were taken and the activity of the hOAT was measured.

hOAT [2] = target: T1, hOAT; test: Turnover number and partition ratio by titrating hOAT with varying equivalents of inactivator
Protocol: The turnover number and partition ratio of 6 were determined by titrating a known amount of hOAT with varying equivalents of inactivator (FIG. 12). The linear relationship of the remaining enzymatic activity was extrapolated to yield the number of equivalents of 6 required to inactivate the enzyme completely. From this we determined the turnover number of 6 to be 8.5 equivalent and the partition ratio to be 7.5. Based on our understanding of the mechanism, we believe that the turnover number may indicate that the second deprotonation is slow, which would allow the ketimine time to hydrolyze in a higher percentage than if the second deprotonation occurred rapidly.

hOAT [3] = target: T1, hOAT; test: Time-dependent inactivation of hOAT; details: enantiopure compound
GABA-AT = test: Time-dependent inhibition of GABA-AT; details: conclusion statement
From the text: Time-dependent inhibition of both GABA-AT and OAT were explored with racemic 6 (FIGS. 4 and 5). […] Racemic Vince lactam was used for the aforementioned biological assays.

For `N[C@@H]1CC2C(F)(F)[C@@]2(C(=O)O)C1` (stereo partly drawn) [compound 6, (1S,3R)-3-amino-6,6-difluorobicyclo[3.1.0]hexane-1-carboxylic acid], the “enzymatic activity recovered after dialysis” value (hOAT [1]) was “No enzymatic activity was recovered”, the partition ratio (hOAT [2]) was 7.5 and the turnover number (hOAT [2]; extrapolated from linear relationship of remaining enzymatic activity) was 8.5 equivalent. For the same molecule, the kinact/KI (hOAT [3]) was 2.6 M⁻¹ s⁻¹ and the “activity in GABA-AT” value (GABA-AT) was “modest activity”.
